Source: US8778966B2, “Quinolinone derivatives as PARP and tank inhibitors” (Janssen Pharmaceutica, NV, priority 2007, dated 2014)

Experiments:
Human PARP-1 enzyme = target: T1, Human PARP-1 enzyme (Homo sapiens, UniProt P09874); assay: In vitro Scintillation Proximity Assay (SPA) for PARP-1 inhibitory activity; format: biochemical; conditions: read-out: in vitro SPA assay PARP-1 pIC50 (converted)
T1 construct: purchased Trevigen
Summary of the method: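 SPA assay: nicked-DNA-activated PARP-1 (0.1–0.2 μg/ml) ADP-ribosylates biotinylated histones (2 μg/ml) using [3H]-NAD+, 20 min at RT in Tris pH 8/DTT/MgCl2, stopped with 2 mM NAD+. Blank-subtracted cpm expressed as % control; IC50 by linear interpolation, reported as pIC50 (10−5 to 3×10−9 M tested).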

HCT116 cells = assay: Antiproliferative activity, Alamar Blue assay, HCT116 cells; format: cell-based, human; parameters: key to HCT116 antiproliferative activity pIC50: pIC50 = -log IC50 (IC50: conc. reducing growth to 50% of control); conditions: for IC50: Homo sapiens, HCT-116, HCT116 cells, read-out: HCT116 antiproliferative activity pIC50 (converted)
Summary of the method: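 HCT116 cells seeded, adhered 24 h, then exposed to compound for 4 days; Alamar Blue (resazurin) added for 4 h at 37 °C, fluorescence read at 540/590 nm. Viability as % of untreated control, triplicate wells; IC50 by probit analysis, reported as pIC50.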

T1 sequence (P09874 whole entry): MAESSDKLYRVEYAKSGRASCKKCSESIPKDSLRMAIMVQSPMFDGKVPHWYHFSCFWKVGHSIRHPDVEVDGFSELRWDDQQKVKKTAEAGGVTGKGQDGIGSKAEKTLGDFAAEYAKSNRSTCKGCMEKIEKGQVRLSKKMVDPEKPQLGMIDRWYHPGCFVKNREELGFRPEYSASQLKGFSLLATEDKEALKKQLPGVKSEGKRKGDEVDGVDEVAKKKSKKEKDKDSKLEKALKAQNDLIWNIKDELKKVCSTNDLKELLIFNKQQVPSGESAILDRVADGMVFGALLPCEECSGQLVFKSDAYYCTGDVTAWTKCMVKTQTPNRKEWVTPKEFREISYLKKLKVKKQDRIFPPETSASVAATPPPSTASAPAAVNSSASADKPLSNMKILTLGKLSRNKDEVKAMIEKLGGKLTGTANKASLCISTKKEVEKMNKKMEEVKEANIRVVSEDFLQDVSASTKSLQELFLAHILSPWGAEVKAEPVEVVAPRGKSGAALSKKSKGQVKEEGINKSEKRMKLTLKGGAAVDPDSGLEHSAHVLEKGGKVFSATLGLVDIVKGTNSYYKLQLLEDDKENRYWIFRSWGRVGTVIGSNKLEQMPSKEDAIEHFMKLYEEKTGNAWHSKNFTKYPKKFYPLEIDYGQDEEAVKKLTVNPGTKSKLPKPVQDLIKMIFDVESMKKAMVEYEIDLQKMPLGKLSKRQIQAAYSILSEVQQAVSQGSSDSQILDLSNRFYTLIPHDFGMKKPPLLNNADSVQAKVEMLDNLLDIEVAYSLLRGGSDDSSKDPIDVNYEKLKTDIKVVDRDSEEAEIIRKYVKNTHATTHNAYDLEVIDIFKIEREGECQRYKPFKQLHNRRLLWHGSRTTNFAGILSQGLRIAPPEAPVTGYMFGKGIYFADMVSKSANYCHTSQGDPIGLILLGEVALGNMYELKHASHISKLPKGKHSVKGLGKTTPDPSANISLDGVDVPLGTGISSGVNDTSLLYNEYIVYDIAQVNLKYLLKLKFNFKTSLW

Row | SMILES | IC50 (Human PARP-1 enzyme) [nM] | IC50 (HCT116 cells) [nM] | HCT116 antiproliferative activity pIC50 (HCT116 cells; HCT116 cells)
1 | CCc1cc2ccc([C@](C)(C#N)Cc3cc(F)cc(F)c3)cc2[nH]c1=O [Compound 333] | 31.6 | 10000 | 
2 | CCc1cc2ccc(C(C)(C#N)Cc3ccc(C(F)(F)F)nc3C)cc2[nH]c1=O (stereo not drawn) [Compound 340] | 100 | 3160 | 
3 | CCc1cc2ccc(C(C)(C#N)Cc3ccnc(Cl)c3)cc2[nH]c1=O (stereo not drawn) [Compound 341] | 63.1 | 2510 | 
4 | CCc1cc2ccc(C(C#N)(CC)Cc3cccc(C#N)n3)cc2[nH]c1=O (stereo not drawn) [Compound 342] | 79.4 | 501 | 
5 | CCc1cc2ccc(C(C)(C#N)CCOc3ccnc(SC)n3)cc2[nH]c1=O (stereo not drawn) [Compound 348] | 79.4 | 3160 | 
6 | CCc1cc2ccc(C(C)(C#N)CCOc3ncc(Br)cn3)cc2[nH]c1=O (stereo not drawn) [Compound 349] | 63.1 | 631 | 
7 | CCc1cc2ccc(C(C)(C#N)Cc3nc(C)cc(OC)n3)cc2[nH]c1=O (stereo not drawn) [Compound 371] | 100 | 316 | 
8 | CCc1cc2ccc(C(C)(C#N)CN3CCN(c4ncc(Br)cn4)CC3)cc2[nH]c1=O (stereo not drawn) [Compound 374] | 100 | 501 | 
9 | CCc1cc2ccc(C(C)(C#N)CN3CCc4ccccc4C3)cc2[nH]c1=O (stereo not drawn) [Compound 376] | 158 | 2000 | 
10 | Cc1cc2ccc([C@@](C)(C#N)[C@@H]3CCCc4ccccc43)cc2[nH]c1=O [Compound 382] | 501 | 5010 | 
11 | CCc1cc2ccc(C(C#N)(CC)Cc3cccc(CN)c3)cc2[nH]c1=O (stereo not drawn) [Compound 390] | 63.1 | 631 | 
12 | CCc1cc2ccc([C@](C)(C#N)C[C@H]3Cc4ccccc4O3)cc2[nH]c1=O [Compound 397] | 126 | 7940 | 
13 | CCc1cc2ccc(C(C)(C#N)CC3Oc4ccccc4O3)cc2[nH]c1=O (stereo not drawn) [Compound 398] | 100 | 5010 | 
14 | CCc1cc2ccc(C(C)(C#N)Cc3cc(F)cc(F)c3)cc2[nH]c1=O (stereo not drawn) [Compound 402] | 50.1 |  | 6.7
15 | CCc1cc2ccc(C(C#N)(CC)C3CCc4ccc(OC)cc43)cc2[nH]c1=O (stereo not drawn) [Compound 403] | 501 | 158 | 
16 | Cc1cc2ccc([C@@](C)(C#N)[C@H]3CCc4ccc(Br)cc43)cc2[nH]c1=O [Compound 405] | 316 | 50.1 | 
17 | Cc1cc2ccc([C@](C)(C#N)[C@@H]3CCc4ccc(Br)cc43)cc2[nH]c1=O [Compound 406] | 158 | 10000 | 
18 | Cc1cc2ccc([C@](C)(C#N)[C@H]3CCc4ccc(Br)cc43)cc2[nH]c1=O [Compound 407] | 631 | 631 | 
